Experimental data published in patent publication US8853215B2, “Derivatives of N-acyl-N′-phenylpiperazine useful (inter alia) for the prophylaxis or treatment of diabetes” (Takeda Pharmaceutical Company Limited, priority 2009, dated 2014).

Target: RBP4 (Rattus norvegicus (Rat), UniProt P04916)
Assay: Single administration test in Wistar fatty rats, plasma RBP4 by ELISA
Format: in vivo
Conditions: male Wistar fatty rats, 10 mg/kg oral single dose, mean±SD
Method: The action of the compounds of the present invention to lower plasma RBP4 level was evaluated using the animal model shown below.
Male Wistar fatty rats (fa/fa) were bred in Takeda Pharmaceutical Company Limited and maintained on normal diet (CE2, CLAE Japan, Inc.) and tap water. Animals were housed in a temperature-controlled room adjusted to a 12-hour light/12-hour dark cycle beginning at 7:00 and 19:00, respectively. All procedures were conducted according to the experimental animal care use committee of Takeda Pharmaceutical Company.
Male 13-43-week-old Wistar fatty rats were divided into groups randomly. Compounds were suspended in 0.5% (w/v) methylcellulose in water and given orally to Wistar fatty rats at a dose of 10 mg/10 mL/kg of body weight (3-5 rats per group). Blood samples were obtained from tail vein with sodium heparin as an anticoagulant at time 0 hr (just before the administration), 4 hr, 7 hr, and 24 hr after the administration, followed by plasma separation by centrifugation. Plasma RBP4 levels were measured by enzyme-linked immunosorbent assay described in the following section.
Plasma samples were analyzed in duplicate for RBP4 by an enzyme-linked immunosorbent assay. Mouse recombinant RBP4 (Takeda Pharmaceutical Company Limited) was used as standards, and the assay range was 0.313-20 ng/ml. Samples were diluted 10,000-fold with phosphate-buffered saline (PBS) (Sigma) containing 10% (w/v) BlockAce (Dainippon Sumitomo Pharma Co., Ltd). Rabbit anti-RBP4 polyclonal antibody (100 μL/well of 50 μg/mL, Hokudo Co, Ltd) was incubated in a 96-well plate (Nalge Nunc International K.K.) for overnight at 4° C. Subsequently, the plates were washed with PBS-T (Wako Pure Chemical Industries, Ltd.) and blocked with PBS containing 25% BlockAce for 1 hr at room temperature. After another washing with PBS-T, samples and standards were applied to the well, and the plates were incubated for 2 hr at room temperature. After a washing the wells, peroxidase-labeled (Dojindo Laboratories) anti-RBP4 (100 μL/well) was added to the wells, and then the plates were incubated for 1 hr at room temperature. After a final washing with PBS-T, substrate solution 3,3,5,5-tetramethylbenzidine (Sigma) was added to the wells, and the plates were placed in the dark for 5-20 min at room temperature. The reaction was stopped with 0.5 M sulphuric acid and the optical density was measured with a spectrophotometer at 450 nm. The changes in plasma RBP4 levels were expressed as % of initial/Control. All data are presented as mean±SD.

- RBP4 (% of initial/Control) 0 hr (0 hr (just before the administration)): 100.0 ± 13.8 % of initial/Control
- RBP4 (% of initial/Control) 4 hr (4 hr after administration): 59.6 ± 14.5 % of initial/Control
- RBP4 (% of initial/Control) 7 hr (7 hr after administration): 58.5 ± 5.6 % of initial/Control
- RBP4 (% of initial/Control) 24 hr (24 hr after administration): 106.0 ± 16.1 % of initial/Control
Structure (SMILES): CC(C)(C)c1ccccc1N1CCN(C(=O)C(=O)O)CC1 [Example 44, 2-[4-(2-tert-Butylphenyl)piperazin-1-yl]-2-oxoacetic acid]
